Results from paper PMC4450806, “The cytochrome bd-type quinol oxidase is important for survival of Mycobacterium smegmatis under peroxide and antibiotic-induced stress” (Scientific Reports, 2015).

Target: T1, cytochrome bd-type quinol oxidase (cytochrome bd) (Mycolicibacterium smegmatis, UniProt A0QXA8)
T1 construct: gene MSMEG_3233; native enzyme in inverted membrane vesicles of the ΔqcrCAB :: hyg strain (cytochrome bd as the only respiratory branch); with CydB (cytochrome bd subunit)
Experiment: NADH-driven oxygen consumption of inverted membrane vesicles (Clark-type electrode), wild-type versus bc1-knockout strain
Format: biochemical

For `CC(C)=CCC/C(C)=C/CC/C(C)=C/Cc1c(C)[nH]c2ccccc2c1=O` [aurachin D], the IC50 was about 400 nM.
